This note sets out measurements from ChEMBL document CHEMBL1201862, “PubChem BioAssay data set” (2004).

Molecules are shown by their SMILES.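 Dose response: 5 concentrations. Exposure: 48 h. Format: 96-well plates. Endpoint: linear interpolation; highest concentration if not reached. GI50: concentration for 50% inhibition of growth.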 Activity calls are given as the source filed them. No stated cut-off is given here; in the data, active = GI50 up to about 1.1 µM and inactive = higher.

Among the test systems are HCT-116; HCT-15; HL-60; K562; MDA-MB-435; MDA-N; NCI-H226; NCI/ADR-RES; OVCAR-3; OVCAR-4; PC-3; SF-268; SN12C; SR; SW-620; T47D; TK-10; A498; RXF 393; SF-539.
Holding throughout (assay): NCI anticancer screen, dose series, 48 h

As to `COc1cc(/C=C/C(=O)OC[C@]23O[C@H]2[C@@H](OC2OC(C)C(O)C(O)C2O)C2C=CO[C@@H](OC4OC(CO)C(O)C(O)C4O)C23)ccc1O` (stereo partly drawn), the GI50 was > 100 µM (inactive) in the experiment with HCT-116; above 100 µM with HCT-15; > 100 µM (inactive) with HL-60; > 100 µM (inactive) with K562; > 100 µM (inactive) in the experiment with MDA-MB-435; > 100 µM (inactive) in the experiment on MDA-N. Also, the GI50 in the experiment on NCI-H226, in the experiment on NCI/ADR-RES, in the experiment with OVCAR-3, in the experiment with OVCAR-4, in the experiment on PC-3 and with SF-268 was > 100 µM (inactive) throughout. In addition, the GI50 in the experiment with SN12C, in the experiment on SR, with SW-620, with T47D and in the experiment on TK-10 was > 100 µM (inactive) each time.

`O=C1c2cc(Cl)ccc2-n2cnnc2C2CSCN12` (stereo not drawn): the GI50 in the experiment with A498 is 55.6 µM (inactive); in the experiment on HCT-116, > 100 µM (inactive); in the experiment with HCT-15, above 100 µM; in the experiment on K562 it was > 100 µM (inactive); in the experiment on MDA-MB-435, > 100 µM (inactive); in the experiment on MDA-N, > 100 µM (inactive). For the same compound, the GI50 in the experiment on NCI-H226, in the experiment with NCI/ADR-RES, with OVCAR-3, with OVCAR-4, in the experiment on PC-3 and in the experiment with RXF 393 was > 100 µM (inactive) throughout. Further, the GI50 is > 100 µM (inactive) with SF-268; > 100 µM (inactive) in the experiment with SN12C; 75.2 µM (inactive) in the experiment on SR; > 100 µM (inactive) with SW-620; > 100 µM (inactive) with T47D; > 100 µM (inactive) in the experiment with TK-10.

For the compound `O=C(NNC(=O)c1ccc(Cl)cc1NC(=O)C12CC3CC(CC(C3)C1)C2)c1ccc(Cl)cc1`, the GI50 with HCT-116 was 20.3 µM (inactive); in the experiment with HCT-15 it was 17.5 µM; with HL-60, 25.7 µM (inactive); in the experiment with K562, 34.9 µM (inactive); in the experiment with MDA-MB-435, 18.6 µM (inactive); with MDA-N, 22 µM (inactive). The GI50 was 22.7 µM (inactive) in the experiment on NCI-H226; 24.8 µM (inactive) in the experiment with NCI/ADR-RES; 19.5 µM (inactive) in the experiment on OVCAR-3; 34.8 µM (inactive) in the experiment with OVCAR-4; 26.8 µM (inactive) in the experiment with PC-3; 19.5 µM (inactive) with RXF 393. Moreover, the GI50 in the experiment on SF-268 was 29.9 µM (inactive); with SF-539, 23.7 µM (inactive); in the experiment on SN12C, 27.7 µM (inactive); with SR, 28.8 µM (inactive); in the experiment with SW-620, 32.1 µM (inactive); in the experiment with T47D, 27.9 µM (inactive). Further, in the experiment with TK-10, the GI50 is 20.1 µM (inactive).

Turning to `O=c1[nH]c(=O)n(C2CC(O)C(CO)O2)cc1OCC1CCCCC1` (stereo not drawn), the GI50 with HCT-116 is > 100 µM (inactive); with HCT-15, above 100 µM; with HL-60, > 100 µM (inactive); in the experiment with K562 it was > 100 µM (inactive); with MDA-MB-435 it was > 100 µM (inactive); in the experiment on MDA-N, > 100 µM (inactive). Besides, the GI50 with NCI-H226, with NCI/ADR-RES, in the experiment with OVCAR-3, in the experiment on OVCAR-4, in the experiment with PC-3 and in the experiment on RXF 393 was > 100 µM (inactive) throughout. In addition, the GI50 in the experiment with SF-268, with SN12C, with SR, with T47D and with TK-10 was > 100 µM (inactive) throughout.

Consider `Cc1nn(C(=O)c2ccncc2)c2c1C(c1ccccc1[N+](=O)[O-])SC(=N)N2` (stereo not drawn), for which the GI50 was > 10 µM (inactive) in the experiment with HCT-116; above 10 µM in the experiment on HCT-15; > 10 µM (inactive) with HL-60; > 10 µM (inactive) with K562; > 10 µM (inactive) in the experiment with MDA-MB-435; > 10 µM (inactive) with MDA-N. Also, the GI50 with NCI-H226, in the experiment on NCI/ADR-RES, in the experiment with OVCAR-3, in the experiment with OVCAR-4, with PC-3 and in the experiment with RXF 393 was > 10 µM (inactive) throughout. The GI50 with SF-268, in the experiment with SF-539, with SN12C, in the experiment with SR, in the experiment with SW-620 and in the experiment with T47D was > 10 µM (inactive) in each case. In addition, the GI50 in the experiment with TK-10 was > 10 µM (inactive).

As for `O=C(c1ccccc1Br)C(F)(F)F`, the GI50 with A498 was > 100 µM (inactive); with HCT-116, > 100 µM (inactive); with HCT-15, above 100 µM; with HL-60 it was > 100 µM (inactive); in the experiment on K562 it was > 100 µM (inactive); in the experiment on MDA-MB-435, > 100 µM (inactive). Also, the GI50 with MDA-N, in the experiment on NCI-H226, with NCI/ADR-RES, with OVCAR-3, in the experiment on OVCAR-4 and in the experiment on PC-3 was > 100 µM (inactive) each time. Further, the GI50 was > 100 µM (inactive) with SF-268; > 100 µM (inactive) with SF-539; > 100 µM (inactive) in the experiment with SN12C; > 100 µM (inactive) in the experiment with SR; > 100 µM (inactive) with SW-620; 48.5 µM (inactive) in the experiment on T47D. Besides, in the experiment with TK-10, the GI50 is > 100 µM (inactive).

Turning to `O=c1[nH]c(=O)n(C2OC(CO)C(O)C(F)C2O)cc1F` (stereo not drawn), the GI50 in the experiment with A498 is > 100 µM (inactive); with HCT-116, > 100 µM (inactive); in the experiment on HCT-15 it was above 100 µM; with HL-60, > 100 µM (inactive); in the experiment on K562, > 100 µM (inactive); with MDA-MB-435, > 100 µM (inactive). Also, the GI50 in the experiment with MDA-N, in the experiment with NCI-H226, in the experiment on NCI/ADR-RES, with OVCAR-3, in the experiment on OVCAR-4 and with PC-3 was > 100 µM (inactive) in each case. The GI50 in the experiment with SF-268 is > 100 µM (inactive); in the experiment with SF-539, > 100 µM (inactive); in the experiment on SN12C it was > 100 µM (inactive); with SR it was 25.4 µM (inactive); with SW-620, > 100 µM (inactive); in the experiment on T47D it was > 100 µM (inactive). The GI50 with TK-10 was > 100 µM (inactive).

Turning to `CNC1c2ccccc2C(=O)c2cc3c(cc21)OCCOCCOCCOCCO3` (stereo not drawn), the GI50 with HCT-116 is > 100 µM (inactive); in the experiment with HCT-15 it was 39.9 µM; in the experiment with HL-60, 27.4 µM (inactive); in the experiment on K562, 45.1 µM (inactive); with MDA-MB-435 it was > 100 µM (inactive); with MDA-N it was 96.8 µM (inactive). Besides, the GI50 was > 100 µM (inactive) with NCI/ADR-RES; > 100 µM (inactive) in the experiment on OVCAR-4; > 100 µM (inactive) in the experiment on PC-3; > 100 µM (inactive) in the experiment on SF-268; > 100 µM (inactive) in the experiment on SF-539; 99.1 µM (inactive) in the experiment with SN12C. The GI50 was 28.7 µM (inactive) in the experiment on SR, 81.3 µM (inactive) with SW-620, > 100 µM (inactive) in the experiment on T47D and > 100 µM (inactive) in the experiment on TK-10.

`CC(C)=CCC/C(C)=C/COc1c2ccoc2cc2oc(=O)ccc12` [BERGAMOTTIN]: the GI50 was 23.1 µM (inactive) in the experiment on A498; 23.8 µM (inactive) in the experiment on HCT-116; 30.4 µM in the experiment with HCT-15; 16.4 µM (inactive) with HL-60; 22.4 µM (inactive) in the experiment with K562; 34.6 µM (inactive) in the experiment on MDA-MB-435. For the same compound, the GI50 in the experiment with MDA-N is 34.7 µM (inactive); in the experiment on NCI-H226, 30.1 µM (inactive); in the experiment with NCI/ADR-RES, 35 µM (inactive); with OVCAR-3, 25.4 µM (inactive); in the experiment on OVCAR-4, 41.4 µM (inactive); in the experiment with PC-3, 29.9 µM (inactive). The GI50 with SF-268 is 54.1 µM (inactive); with SF-539, 37.2 µM (inactive); in the experiment on SN12C, 38.3 µM (inactive); in the experiment with SR, 15.2 µM (inactive); with SW-620, 37.8 µM (inactive); in the experiment with T47D, 19.3 µM (inactive). In the experiment with TK-10, the GI50 was 42.2 µM (inactive).

Consider `CCOC(=O)Cc1nc2c(N)ncnc2n1C1OC(COC(C)=O)C(OC(C)=O)C1OC(C)=O` (stereo not drawn), for which the GI50 is > 100 µM (inactive) in the experiment on A498; > 100 µM (inactive) in the experiment on HCT-116; above 100 µM in the experiment on HCT-15; > 100 µM (inactive) with HL-60; > 100 µM (inactive) with K562; > 100 µM (inactive) in the experiment on MDA-MB-435. For the same compound, the GI50 in the experiment with MDA-N, in the experiment on NCI-H226, in the experiment with NCI/ADR-RES, in the experiment with OVCAR-3, in the experiment on PC-3 and in the experiment on SF-268 was > 100 µM (inactive) in each case. The GI50 in the experiment with SF-539, with SN12C, in the experiment on SR, in the experiment with SW-620, in the experiment on T47D and with TK-10 was > 100 µM (inactive) each time.

For `CC(=O)N/N=C1/CC[C@@]2(C)C(=CC[C@H]3C4CCC(C(C)CCCC(C)C)[C@@]4(C)CCC32)C1(C)C` (stereo partly drawn), the GI50 with HCT-116 is 48.8 µM (inactive); with HCT-15 it was 40.6 µM; in the experiment with HL-60, 42 µM (inactive); in the experiment on K562, 15.9 µM (inactive); in the experiment with MDA-MB-435, 82 µM (inactive); with MDA-N, > 10 µM (inactive). Also, the GI50 in the experiment on NCI-H226 was > 100 µM (inactive); with NCI/ADR-RES, 47.8 µM (inactive); in the experiment with OVCAR-3 it was 74.8 µM (inactive); in the experiment on OVCAR-4 it was 50.5 µM (inactive); with PC-3, 30.1 µM (inactive); in the experiment on SF-268, 63 µM (inactive). Besides, the GI50 is 51.4 µM (inactive) in the experiment on SN12C; 50.9 µM (inactive) in the experiment with SR; 53.3 µM (inactive) in the experiment with SW-620; 70.5 µM (inactive) with T47D; > 100 µM (inactive) in the experiment with TK-10.
